Laboratory results from paper PMC6902473 (Clinical Epigenetics, 2019).

Details: human, in vivo
Procedure: The study design was a single-arm, multi-center phase I/II clinical trial with two phases: Phase I was an intra-patient dose (de)escalation period until an individual maximum tolerable dose (MTD) was reached. […] A DLT was defined as grade 3 or 4 toxicity according to a selection of Common Toxicity Criteria for Adverse Events (CTCAE) (V4.0) and judged by the investigator as definitely, probably, or possibly related to the study drug. The starting dose was 180 mg/m^2/day and the minimum dose was 30 mg/m^2/day. A dosing nomogram was used to minimize interpatient dosing variability.
De-escalation was done in steps of 50 mg/m^2/day until a minimal dose of 30 mg/m^2/day was reached. […] Upon reaching her or his individual MTD, a patient seamlessly entered phase II of the protocol.
During phase II, disease assessments were performed every 3 months, starting 3 months after reaching individual MTD. If treatment was discontinued for any reason during phase II, treatment was prolonged thereafter to provide a minimal treatment window of 3 months before measuring response. Patients without progressive disease continued the therapy at their individual MTD until disease progression (but no longer than 9 months). In case of clinical benefit, treatment could be continued on an individual basis at the discretion of the investigator. Toxicities were graded according CTCAE V4.0.
The primary end point was to determine a safe dose recommendation (SDR), defined as the highest dose with a DLT in no more than 1/50 patients.
The DLT associated with the starting dose was to be continuously monitored using a Bayesian criterion with a non-informative prior and a binomial-beta model for the DLT rate r. […] This decision process was repeated, i.e., it was applied to the lowered starting dose in an analogous way.
All adverse events were summarized, using MedDRA preferred terms.

## O=C(CCCCCCC(=O)Nc1ccccc1)NO [vorinostat]
  Patients with all causalities AE: AE: 49 (98) No. (%)
  Patients with all causalities AE: AE leading to dose reduction or temporary treatment discontinuation: 38 (76) No. (%)
  Patients with all causalities AE: AE leading to treatment discontinuation: 9 (18) No. (%)
  Patients with all causalities AE: SAEs: 19 (38) No. (%)
  Patients with all causalities AE: Severe AEs (CTCAE grade 3/4): 48 (96) No. (%)
  Patients with treatment related AE: Alanine aminotransferase increased: 2 (4.0) Patients (%)
  Patients with treatment related AE: Alopecia: 9 (18.0) Patients (%)
  Patients with treatment related AE: Anemia: 8 (16.0) Patients (%)
  Patients with treatment related AE: Blood creatinine increased: 5 (10.0) Patients (%)
  Patients with treatment related AE: Blood lactate dehydrogenase increased: 4 (8.0) Patients (%)
  Patients with treatment related AE: Constipation: 4 (8.0) Patients (%)
  Patients with treatment related AE: Cough: 3 (6.0) Patients (%)
  Patients with treatment related AE: Decreased appetite: 5 (10.0) Patients (%)
  Patients with treatment related AE: Diarrhea: 11 (22.0) Patients (%)
  Patients with treatment related AE: Dry skin: 4 (8.0) Patients (%)
  Patients with treatment related AE: Fatigue: 9 (18.0) Patients (%)
  Patients with treatment related AE: Headache: 5 (10.0) Patients (%)
  Patients with treatment related AE: Nausea: 11 (22.0) Patients (%)
  Patients with treatment related AE: Platelet count decreased: 6 (12.0) Patients (%)
  Patients with treatment related AE: Pyrexia: 3 (6.0) Patients (%)
  Patients with treatment related AE: Vomiting: 8 (16.0) Patients (%)
  Patients with treatment related AE: Weight decreased: 5 (10.0) Patients (%)
  Patients with treatment related AE: White blood cell decreased: 1 (2.0) Patients (%)
  Total of patients with treatment related AE: Alanine aminotransferase increased: 4 (8.0, 2.2 - 19.2) Patients (%, 95% CIs)
  Total of patients with treatment related AE: Alopecia: 9 (18.0, 8.6 - 31.4) Patients (%, 95% CIs)
  Total of patients with treatment related AE: Blood creatinine increased: 5 (10.0, 3.3 - 21.8) Patients (%, 95% CIs)
  Total of patients with treatment related AE: Blood lactate dehydrogenase increased: 4 (8.0, 2.2 - 19.2) Patients (%, 95% CIs)
  Total of patients with treatment related AE: Constipation: 4 (8.0, 2.2 - 19.2) Patients (%, 95% CIs)
  Total of patients with treatment related AE: Decreased appetite: 7 (14.0, 5.8 - 26.7) Patients (%, 95% CIs)
  Total of patients with treatment related AE: Headache: 6 (12.0, 4.5 - 24.3) Patients (%, 95% CIs)
  Total of patients with treatment related AE: Weight decreased: 8 (16.0, 7.2 - 29.1) Patients (%, 95% CIs)
  Total of patients with treatment related AE: White blood cell decreased: 9 (18.0, 8.6 - 31.4 ) Patients (%, 95% CIs)
  Total sum of DLTs: Abdominal pain: 1
  Total sum of DLTs: Abdominal pain upper: 2
  Total sum of DLTs: Aggression: 1
  Total sum of DLTs: Alanine aminotransferase increased: 3
  Total sum of DLTs: Anemia: 2
  Total sum of DLTs: Apathy: 1
  Total sum of DLTs: Decreased appetite: 3
  Total sum of DLTs: Fatigue: 7
  Total sum of DLTs: Febrile infection: 2
  Total sum of DLTs: Hypermagnesemia: 3
  Total sum of DLTs: Hypokalemia: 1
  Total sum of DLTs: Loss of personal independence in daily activities: 1
  Total sum of DLTs: Vomiting: 2
  Total sum of DLTs: Weight decreased: 2
  Total sum of DLTs: White blood cell decreased: 11
